Source: US20030055084A1, “Pharmaceutical compounds and methods of use thereof” (Millennium Pharmaceutical, Inc., priority 2001, published 2003)
One block for each molecule: values may come before it.

Test system: Leukotriene B4 production in ionophore-stimulated human whole blood
Experiment: Inhibition of leukotriene B4 production in ionophore-stimulated human whole blood
Type: cell-based
Settings: calcium ionophore stimulated, LTB4 by EIA, read-out: HWB IC50
Method: Inhibition of Leukotriene B4 Production in lonophore-Stimulated Human Whole Blood
Human blood was drawn into heparinized blood collection tubes, and aliquoted in 1 ml portions into 1.5 ml microfuge tubes. Test compound ([…]) of varying concentrations, dissolved in DMSO, was added to the blood sample and incubated for 15 minutes at 37° C. Calcium ionophore ([…]) in DMSO was added to a final concentration of […], and the samples were incubated for 30 minutes at 37° C. Samples are then centrifuged at 1100×g (2500 rpm, H1000B rotor, in a Sorvall centrifuge) for 10 minutes at 4° C. Supernatant ([…]) was transferred into 1 1.5 ml microfuge tube, […] of cold methanol added, and proteins precipitated on ice for 30 minutes. The samples were centrifuged at 110×g for 10 minutes at 4° C., and the supernatant assayed for LTB4 using a commercially available EIA kit (Cayman Chemical) according to manufacturer's specifications. The following IC50 results (nM) were obtained for the specified compounds having the structures as indicated for the corresponding compound number.

Compound: NC(=O)N(O)CCC#C[C@@H]1CC[C@@H](c2cc3ccccc3s2)O1 [Compound 2A]
IC50: 112 nM

Compound: NC(=O)N(O)CCC#C[C@H]1CC[C@@H](c2cc3ccccc3s2)O1 [Compound 2B]
IC50: 878 nM

Next, values leading:

IC50: 197 nM
Compound: C[C@@H](C#C[C@@H]1CC[C@@H](c2cc3ccccc3s2)O1)N(O)C(N)=O [Compound 3]

IC50: 298 nM
Compound: NC(=O)N(O)CCC#C[C@@H]1CC[C@H](c2cc3cc(C(F)(F)F)ccc3o2)O1 [Compound 4B]

IC50: 101 nM
Compound: NC(=O)N(O)CCC#C[C@@H]1CCC(c2cc3cc(F)ccc3o2)O1 (stereo partly drawn) [Compound 6A]

IC50: 388 nM
Compound: NC(=O)N(O)CCC#C[C@H]1CCC(c2cc3cc(F)ccc3o2)O1 (stereo partly drawn) [Compound 6B]
